Tests used:
ALK [L1196M] = ALK [L1196M] (Homo sapiens, UniProt Q9UM73, L1196M); assay: Kinase inhibition assay, ALK [L1196M]; assay type: biochemical
Method: (§1) Compound preparation: The test compounds were dissolved in DMSO to make 20 mM stock solutions. The compounds were diluted in DMSO to 0.1 mM (a dilution with 100 times the final concentration) before use, and a 3-fold series gradient dilution with 11 concentrations was made. Dilutions with 4 times of the final concentration were prepared by diluting with buffer when dosing.
(§2) Kinase assay: after preparing the buffer solution, the enzyme was mixed with pre-diluted compounds with different concentrations, and placed at room temperature for 30 minutes in duplicate. The corresponding substrate and ATP were added thereto and reacted at room temperature for 60 minutes (both a negative and a positive control were set). After the reaction, antibody was added for detection, and after incubation at room temperature for 60 minutes, Evnvision detection was carried out, and data was collected. Data was analyzed and fit according to XLfit5 software. IC50 was calculated by the following formula: (IC50=[(ABS test-ABS begin)/(ABS control-ABS begin)]×100).

Ba/F3 [EML4-ALK] [1] = assay: Cytotoxicity test (CellTiter-Glo), Ba/F3 [EML4-ALK]; assay type: cell-based; conditions: ratio of Ba/F3 IC50 values
Method: (§3) The in vitro anti-proliferative activity of the compounds of the present disclosure against three types of cells that are cultured in vitro was tested by CellTiter-Glo method.
(§4) Cell lines: Ba/F3 parental; Ba/F3 [EML4-ALK] (From WuXi PharmaTech) and Ba/F3 [EML4-ALK L1196M] (From WuXi PharmaTech); wherein, Ba/F3 parental was cultured in RPMI1640 medium containing 10 ng/ml IL-3, […], 100 U/ml penicillin, and 100 μg/ml streptomycin, Ba/F3 [EML4-ALK] and Ba/F3 [EML4-ALK L1196M] were cultured in RPMI1640 medium containing 10% fetal bovine serum, 100 U/ml penicillin, and 100 μg/ml streptomycin.
(§5) Reagents and materials: RPMI-1640 (GIBCO, Cat. No. A10491-01); fetal bovine serum (GIBCO, Cat. No. 10099141); 0.25% trypsin-EDTA (GIBCO, Cat. No. 25200); penicillin-streptomycin, liquid (GIBCO, Cat. No. 15140-122); DMSO (Sigma, Cat. No. D2650); CellTiter-Glo Test Kit (Promega, Cat. No. G7572), and 96-well plate (Corning, Cat. No. 3365).
(§6) Specific experimental procedures: • 1. The test compounds were dissolved in DMSO to make stock solutions and subjected to a series gradient dilution to give solutions with 10-fold working concentration. • 2. The cells in the logarithmic growth phase were diluted with the culture solution to adjust to the specific cell concentration, 90 μl of cell suspension was added to the 96-well plate to make the cell density reach the specified concentration. The plate was incubated in a incubator at 37° C., containing 5% carbon dioxide gas overnight. • 3. 10 μl drug solutions were added to each well of the 96-well plate inoculated with cells. 10 concentrations of the compounds were tested starting from the highest concentration of 20 μM with a 3-fold series gradient dilution in duplicate. • 4. After continuously cultured for 72 hours, the cells were detected by CellTiter-Glo for the cell viability. The dose-effect curve was made using GraphPad Prism software and IC50 was calculated.

Ba/F3 [EML4-ALK] [2] = biological target: T1, Ba/F3 [EML4-ALK] (Homo sapiens, UniProt Q9UM73); assay: as above; assay type: cell-based; conditions: 72 hours, CellTiter-Glo; read-out: IC50(nM) ALK (Ba/F3)
T1 construct: IC50(nM) ALK (Ba/F3); other: 72 hours, CellTiter-Glo; Ba/F3 [EML4-ALK]; fused on or other part: Q9HC35 (Echinoderm microtubule-associated protein-like 4)
Method: as §3, §4, §5, §6

Ba/F3 parental = assay: Cytotoxicity test (CellTiter-Glo), Ba/F3 parental; assay type: cell-based; conditions: Mus musculus, BaF3, 72 hours
Method: as §3, §4, §5, §6

Ba/F3 [EML4-ALK L1196M] [3] = assay: Cytotoxicity test (CellTiter-Glo), Ba/F3 [EML4-ALK L1196M]; assay type: cell-based; conditions: ratio of Ba/F3 IC50 values
Method: as §3, §4, §5, §6

Ba/F3 [EML4-ALK L1196M] [4] = biological target: T2, Ba/F3 [EML4-ALK L1196M] (Homo sapiens, UniProt Q9UM73, L1196M, cells depend on it); assay: as above; assay type: cell-based; conditions: 72 hours, CellTiter-Glo; read-out: IC50(nM) ALK[L1196M] (Ba/F3)
T2 construct: IC50(nM) ALK[L1196M]; (Ba/F3); other: 72 hours, CellTiter-Glo; Ba/F3 [EML4-ALK L1196M]; fused on or other part: Q9HC35 (Echinoderm microtubule-associated protein-like 4)
Method: as §3, §4, §5, §6

ALK [WT] = ALK [WT] (Homo sapiens, UniProt Q9UM73); assay: Kinase inhibition assay, ALK [WT]; assay type: biochemical
Method: as §1, §2

Chain of ALK [L1196M] (Q9UM73 19-1620 L1196M): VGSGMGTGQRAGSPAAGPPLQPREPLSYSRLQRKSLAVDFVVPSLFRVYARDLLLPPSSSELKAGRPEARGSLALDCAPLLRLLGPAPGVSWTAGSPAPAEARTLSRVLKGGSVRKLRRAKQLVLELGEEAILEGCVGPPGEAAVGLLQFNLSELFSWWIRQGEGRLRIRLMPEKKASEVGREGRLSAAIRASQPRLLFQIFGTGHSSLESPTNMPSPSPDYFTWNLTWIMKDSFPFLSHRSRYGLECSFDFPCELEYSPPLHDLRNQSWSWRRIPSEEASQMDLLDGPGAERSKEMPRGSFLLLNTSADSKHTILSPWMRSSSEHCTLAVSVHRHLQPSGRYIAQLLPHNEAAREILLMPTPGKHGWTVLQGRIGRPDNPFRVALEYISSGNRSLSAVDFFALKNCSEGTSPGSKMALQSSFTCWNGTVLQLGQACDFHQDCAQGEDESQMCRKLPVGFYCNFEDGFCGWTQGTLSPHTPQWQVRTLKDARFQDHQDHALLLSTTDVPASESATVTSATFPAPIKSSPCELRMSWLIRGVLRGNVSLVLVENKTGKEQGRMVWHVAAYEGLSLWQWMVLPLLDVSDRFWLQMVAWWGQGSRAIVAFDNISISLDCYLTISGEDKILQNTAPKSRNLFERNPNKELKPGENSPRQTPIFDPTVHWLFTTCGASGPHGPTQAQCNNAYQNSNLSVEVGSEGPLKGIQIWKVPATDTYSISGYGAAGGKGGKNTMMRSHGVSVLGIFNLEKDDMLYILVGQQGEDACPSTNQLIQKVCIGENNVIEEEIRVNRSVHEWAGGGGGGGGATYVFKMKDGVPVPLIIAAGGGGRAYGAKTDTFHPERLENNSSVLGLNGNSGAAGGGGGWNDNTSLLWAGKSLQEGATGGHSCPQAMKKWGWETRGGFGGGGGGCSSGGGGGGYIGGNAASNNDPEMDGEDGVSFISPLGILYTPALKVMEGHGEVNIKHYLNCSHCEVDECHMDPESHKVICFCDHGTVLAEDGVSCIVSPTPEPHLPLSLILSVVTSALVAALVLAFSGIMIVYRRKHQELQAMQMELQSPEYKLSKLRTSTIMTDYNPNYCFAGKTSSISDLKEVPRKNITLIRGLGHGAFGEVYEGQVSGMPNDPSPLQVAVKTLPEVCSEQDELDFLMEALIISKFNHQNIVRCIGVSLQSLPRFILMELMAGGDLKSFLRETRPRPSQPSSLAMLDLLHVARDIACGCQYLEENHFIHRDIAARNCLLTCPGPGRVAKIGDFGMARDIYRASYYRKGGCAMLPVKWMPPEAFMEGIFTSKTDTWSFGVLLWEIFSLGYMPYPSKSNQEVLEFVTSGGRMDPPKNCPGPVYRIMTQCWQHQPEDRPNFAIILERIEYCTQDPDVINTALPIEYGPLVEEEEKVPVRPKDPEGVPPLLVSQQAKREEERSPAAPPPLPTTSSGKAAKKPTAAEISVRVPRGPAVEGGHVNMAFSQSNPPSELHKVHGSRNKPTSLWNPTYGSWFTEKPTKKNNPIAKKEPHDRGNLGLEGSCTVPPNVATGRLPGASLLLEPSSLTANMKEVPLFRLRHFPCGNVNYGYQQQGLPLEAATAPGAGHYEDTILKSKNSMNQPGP
T2 sequence (Q9UM73 whole entry L1196M, the tested form may be a part): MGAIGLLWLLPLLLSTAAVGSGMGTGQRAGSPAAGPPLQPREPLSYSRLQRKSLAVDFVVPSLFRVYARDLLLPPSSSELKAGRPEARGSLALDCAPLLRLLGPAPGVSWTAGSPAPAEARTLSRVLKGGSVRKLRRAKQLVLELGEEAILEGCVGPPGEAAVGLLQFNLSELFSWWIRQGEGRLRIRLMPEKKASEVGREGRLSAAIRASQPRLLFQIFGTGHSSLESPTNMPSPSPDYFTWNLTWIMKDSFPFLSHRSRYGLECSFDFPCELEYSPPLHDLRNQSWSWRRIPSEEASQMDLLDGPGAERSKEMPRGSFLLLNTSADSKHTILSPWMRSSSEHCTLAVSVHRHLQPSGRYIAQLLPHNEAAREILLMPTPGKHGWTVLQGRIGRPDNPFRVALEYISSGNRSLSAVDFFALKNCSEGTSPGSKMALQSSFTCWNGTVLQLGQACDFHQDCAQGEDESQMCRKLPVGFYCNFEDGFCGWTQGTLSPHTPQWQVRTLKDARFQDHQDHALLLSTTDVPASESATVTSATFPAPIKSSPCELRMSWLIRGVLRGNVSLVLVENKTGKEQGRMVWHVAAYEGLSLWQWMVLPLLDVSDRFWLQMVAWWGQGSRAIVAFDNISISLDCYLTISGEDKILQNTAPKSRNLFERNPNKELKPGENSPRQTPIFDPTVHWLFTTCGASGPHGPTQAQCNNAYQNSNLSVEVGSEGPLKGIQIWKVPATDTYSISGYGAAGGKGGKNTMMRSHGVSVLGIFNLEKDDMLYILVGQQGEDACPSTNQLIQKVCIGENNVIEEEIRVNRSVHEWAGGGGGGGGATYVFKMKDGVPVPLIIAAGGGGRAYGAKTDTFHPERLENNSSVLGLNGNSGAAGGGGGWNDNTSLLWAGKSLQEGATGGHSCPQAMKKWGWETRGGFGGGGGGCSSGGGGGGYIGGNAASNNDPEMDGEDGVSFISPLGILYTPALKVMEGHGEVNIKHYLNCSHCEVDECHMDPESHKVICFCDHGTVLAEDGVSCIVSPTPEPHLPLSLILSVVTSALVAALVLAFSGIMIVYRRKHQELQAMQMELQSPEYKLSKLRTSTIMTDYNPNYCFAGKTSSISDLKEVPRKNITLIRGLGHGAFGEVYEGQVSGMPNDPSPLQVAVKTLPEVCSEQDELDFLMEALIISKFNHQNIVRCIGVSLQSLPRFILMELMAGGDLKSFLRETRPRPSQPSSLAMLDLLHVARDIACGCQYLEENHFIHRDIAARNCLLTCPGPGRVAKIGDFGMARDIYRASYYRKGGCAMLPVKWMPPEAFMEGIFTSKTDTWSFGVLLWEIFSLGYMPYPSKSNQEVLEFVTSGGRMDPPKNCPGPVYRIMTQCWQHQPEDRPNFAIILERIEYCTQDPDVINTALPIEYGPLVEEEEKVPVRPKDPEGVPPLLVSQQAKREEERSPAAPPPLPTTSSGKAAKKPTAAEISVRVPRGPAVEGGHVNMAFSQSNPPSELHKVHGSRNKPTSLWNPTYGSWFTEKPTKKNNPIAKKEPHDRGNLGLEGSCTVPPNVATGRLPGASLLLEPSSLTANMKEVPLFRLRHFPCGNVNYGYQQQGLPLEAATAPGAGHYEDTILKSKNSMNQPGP
Chain of ALK [WT] (Q9UM73 19-1620): as the sequence (Q9UM73 19-1620 L1196M) above, with M1178L counted along it
T1 sequence (Q9UM73 whole entry, change not shown, the tested form may be a part): as the sequence (Q9UM73 whole entry L1196M, the tested form may be a part) above, with M1196L counted along it

IC50 (ALK [L1196M])	IC50 (ALK [WT])	SMILES	Selectivity parental/ALK (Ba/F3 [EML4-ALK] [1])	GI50 (Ba/F3 [EML4-ALK] [2])	IC50 (Ba/F3 parental)	Selectivity parental/ALK[L1196M] (Ba/F3 [EML4-ALK L1196M] [3])	GI50 (Ba/F3 [EML4-ALK L1196M] [4])
5 to 10 nM	≤ 5 nM	COc1nc(N2CCC(N(C)C)CC2)ccc1Nc1ncc(Cl)c(Nc2ccccc2P(C)(C)=O)n1 [Example 1, (2-((5-chloro-2-((6-(4-(dimethylamino)piperidin-1-yl)-2-methoxypyridin-3-)amino)pyrimidin-4-yl)amino)phenyl)dimethylphosphine oxide]	50~100	≤ 50 nM	≥ 1000 nM	0~50	50 to 100 nM
≤ 5 nM	≤ 5 nM	COc1nc(N2CCN(C)CC2)ccc1Nc1ncc(Cl)c(Nc2ccccc2P(C)(C)=O)n1 [Example 2, (2-((5-chloro-2-((2-methoxy-6-(4-methylpiperazin-1-yl)pyridin-3-yl)amino)pyrimidin-4-yl)amino)phenyl)dimethylphosphine oxide]	50~100	≤ 50 nM	≥ 1000 nM	0~50	50 to 100 nM
5 to 10 nM	≤ 5 nM	COc1nc(N(C)CCN(C)C)ccc1Nc1ncc(Cl)c(Nc2ccccc2P(C)(C)=O)n1 [Example 3, (2-((5-chloro-2-((6-((2-(dimethylamino)ethyl)(methyl)amino)-2-methoxypyridin-3-yl)amino)pyrimidin-4-yl)amino)phenyl)dimethylphosphine oxide]	100~200	≤ 50 nM	≥ 1000 nM	50~100	50 to 100 nM
5 to 10 nM	5 to 10 nM	COc1nc(N2CCC(N3CCN(C)CC3)CC2)ccc1Nc1ncc(Cl)c(Nc2ccccc2P(C)(C)=O)n1 [Example 4, (2-((5-chloro-2-((2-methoxy-6-(4-(4-methylpiperazin-1-yl)piperidin-1-yl)pyridin-3-yl)amino)pyrimidin-4-yl)amino)phenyl)dimethylphosphine oxide]	50~100	≤ 50 nM	≥ 1000 nM	0~50	50 to 100 nM
≤ 5 nM	5 to 10 nM	CC(C)Oc1nc(N2CCC(N(C)C)CC2)ccc1Nc1ncc(Cl)c(Nc2ccccc2P(C)(C)=O)n1 [Example 5, (2-((5-chloro-2-((6-(4-(dimethyaminono)piperidin-1-yl)-2-isopropoxypyridin-3-yl)amino)pyrimidin-4-yl)amino)phenyl)dimethylphosphine oxide]	100~200	≤ 50 nM	≥ 1000 nM	50~100	50 to 100 nM
≤ 5 nM	5 to 10 nM	CC(C)Oc1nc(N2CCN(C)CC2)ccc1Nc1ncc(Cl)c(Nc2ccccc2P(C)(C)=O)n1 [Example 6, (2-((5-chloro-2-((2-isopropoxy-6-(4-methylpiperazin-1-yl)pyridin-3-yl)amino)pyrimidin-4-yl)amino)phenyl)dimethylphosphine oxide]	200~400	≤ 50 nM	≥ 1000 nM	50~100	100 to 400 nM
5 to 10 nM	10 to 50 nM	CC(C)Oc1nc(N(C)CCN(C)C)ccc1Nc1ncc(Cl)c(Nc2ccccc2P(C)(C)=O)n1 [Example 7, (2-((5-chloro-2-((6-((2-(dimethylamino)ethyl)(methyl)amino)-2-isopropoxypyridin-3-yl)amino)pyrimidin-4-yl)amino)phenyl)dimethylphosphine oxide]	200~400	≤ 50 nM	≥ 1000 nM	50~100	50 to 100 nM
5 to 10 nM	5 to 10 nM	CC(C)Oc1nc(N2CCC(N3CCN(C)CC3)CC2)ccc1Nc1ncc(Cl)c(Nc2ccccc2P(C)(C)=O)n1 [Example 8, (2-((5-chloro-2-((2-isopropoxy-6-(4-(4-methylpiperazin-1-yl)piperidin-1-yl)pyridin-3-yl)amino)pyrimidin-4-yl)amino)phenyl)dimethyl phosphine oxide]	200~400	≤ 50 nM	≥ 1000 nM	50~100	100 to 400 nM
5 to 10 nM	≤ 5 nM	CN(C)C1CCN(c2ccc(Nc3ncc(Cl)c(Nc4ccccc4P(C)(C)=O)n3)c(OCC(F)(F)F)n2)CC1 [Example 9, (2-((5-chloro-2-((6-(4-(dimethyaminono)piperidin-1-yl)-2-(2,2,2-trifluoroethoxy)pyridin-3-yl)amino)pyrimidin-4-yl)amino)phenyl)dimethylphosphine oxide]	200~400	≤ 50 nM	≥ 1000 nM	50~100	50 to 100 nM
5 to 10 nM	≤ 5 nM	CN1CCN(c2ccc(Nc3ncc(Cl)c(Nc4ccccc4P(C)(C)=O)n3)c(OCC(F)(F)F)n2)CC1 [Example 10, (2-((5-chloro-2-((6-(4-methylpiperazin-1-yl)-2-(2,2,2-trifluoroethoxy)pyridin-3-yl)amino)pyrimidin-4-yl)amino)phenyl)dimethylphosphine oxide]	100~200	≤ 50 nM	≥ 1000 nM	50~100	100 to 400 nM
10 to 50 nM	≤ 5 nM	CN(C)CCN(C)c1ccc(Nc2ncc(Cl)c(Nc3ccccc3P(C)(C)=O)n2)c(OCC(F)(F)F)n1 [Example 11, (2-((5-chloro-2-((6-((2-(dimethylamino)ethyl)(methyl)amino)-2-(2,2,2-trifluoroethoxy)pyridin-3-yl)amino)pyrimidin-4-yl)amino)phenyl)dimethylphosphine oxide]	100~200	50 to 100 nM	≥ 1000 nM	50~100	100 to 400 nM
10 to 50 nM	5 to 10 nM	CN1CCN(C2CCN(c3ccc(Nc4ncc(Cl)c(Nc5ccccc5P(C)(C)=O)n4)c(OCC(F)(F)F)n3)CC2)CC1 [Example 12, (2-((5-chloro-2-((6-(4-(4-methylpiperazin-1-yl)piperidin-1-yl)-2-(2,2,2-trifluoroethoxy)pyridin-3-yl)amino)pyrimidin-4-yl)amino)phenyl)dimethylphosphine oxide]	111.30	≤ 50 nM	≥ 1000 nM	0~50	50 to 100 nM
≤ 5 nM	5 to 10 nM	COc1nc(N2CCC(N(C)C)CC2)ccc1Nc1nc(Nc2ccccc2P(C)(C)=O)c2cc[nH]c2n1 [Example 13, (2-((2-((6-(4-(dimethylamino)piperidin-1-yl)-2-methoxypyridin-3-yl)amino)-7H-pyrrolo [2,3-d]pyrimidin-4-yl)amino)phenyl)dimethylphosphine oxide]	0~50	≤ 50 nM	400 to 1000 nM	0~50	50 to 100 nM
